Test results from patent US20190255042A1, “APPLICATION OF HEDGEHOG PATHWAY INHIBITOR IN TREATING FIBROSIS DISEASES” (IMPACT THERAPEUTICS, INC, priority 2016, published 2019).

Tested on: unilateral pulmonary fibrosis model in SD rats
Experiment: Prophylactic therapeutic efficacy in unilateral pulmonary fibrosis model in SD rats (bleomycin)
Assay type: in vivo
Design: key to Fibrosis score (Ashcraft): Ashcraft semi-quantitative fibrosis score; Evaluation of injury and inflammatory lesions of left lung: Fibrotic lesion edge / Evaluation of injury and inflammatory lesions of left lung: Fibrosis lesion: scale not given here
Settings: for Evaluation of injury and inflammatory lesions of left lung: Fibrosis lesion / Evaluation of injury and inflammatory lesions of left lung: Fibrotic lesion edge / Fibrosis area (left pulmonary fibrosis) / Fibrosis Score 1-3 (%) / Fibrosis Score 4-8 (%) / Fibrosis score (Ashcraft) / Volume of left lung / Weight of left lung: D15, mean ± sem, n = 8; for Evaluation of injury and inflammatory lesions of left lung: Fibrosis lesion / Evaluation of injury and inflammatory lesions of left lung: Fibrotic lesion edge: HE score; for Fibrosis area (left pulmonary fibrosis): Masson trichrome; for weight of left lung compared with model group: p<0.05
Method: 40 male SD rats were randomized into Model group (Group 1, n=8), positive drug group BIBF1120 60 mg/kg/d group (Group 2, n=8), Compound A 5 mg/kg/d group (Group 3, n=8), compound A 10 mg/kg/d group (Group 4, n=8) and Compound A 20 mg/kg/d (Group 5, n=8). On the modeling day, rats were anesthetized and exposed to trachea. Bleomycin was injected into trachea of each group (dosage: 3 mg/kg, volume: 1.0 ml/kg). Oral administration was performed 2 hours after modeling, once a day. On Day 15, all the animals were killed, the left lung was taken, the weight and volume of the left lung were measured, then fixed by formalin, the bronchioles were stained with HE, Masson trichrome. The bronchioles, final bronchiole and small pulmonary artery injury and inflammation invasion were evaluated by semi-quantitative score, and pulmonary fibrosis was evaluated by Ashcraft semi-quantitative score.

[1] = 5 mg/kg/d oral from modeling day
[2] = 10 mg/kg/d oral from modeling day
[3] = 20 mg/kg/d oral from modeling day

Q: How did the “Evaluation of injury and inflammatory lesions of left lung: Fibrosis lesion” value (“Evaluation … Fibrosis lesion” for short) [1] turn out when `CC(C)c1cnc(-c2cc(NC(=O)c3ccc(N4C[C@@H](C)N(C)[C@@H](C)C4)cc3C(F)(F)F)ccc2Cl)[nH]1` [Comp A, N-(3-(5-isopropyl-1H-imidazol-2-yl)-4-chlorophenyl)-2-trifluoromethyl-4-((3S,5R)-3,4,5-trimethylpiperazin-1-yl)benzamide] was run?
A: Its value is 7.93 ± 0.16.

Q: What about the “Evaluation of injury and inflammatory lesions of left lung: Fibrotic lesion edge” value (shortened to “Evaluation … Fibrotic lesion edge”) [1] of the same compound?
A: Its value is 5.93 ± 0.20.

Q: What about the “Fibrosis area (left pulmonary fibrosis)” value [1] of the same compound?
A: Its value is 81.64 ± 10.49.

Q: And the “Fibrosis Score 1-3 (%)” value [1]?
A: The value was 62.50 ± 16.69%.

Q: And the “Fibrosis Score 4-8 (%)” value [1]?
A: Its value is 37.50 ± 16.69%.

Q: What about the “Fibrosis score (Ashcraft)” value [1] of the same compound?
A: Its value is 3.33 ± 0.36.

Q: And the “Volume of left lung” value [1]?
A: Its value is 1.38 ± 0.05 cm^3.

Q: What about the “Weight of left lung” value [1] of the same compound?
A: Its value is 1.37 ± 0.08 g.

Q: And the “Evaluation … Fibrosis lesion” value [2]?
A: Its value is 6.93 ± 0.21.

Q: And the “Evaluation … Fibrotic lesion edge” value [2]?
A: Its value is 5.45 ± 0.28.

Q: And the “Fibrosis area (left pulmonary fibrosis)” value [2]?
A: The value was 78.84 ± 4.44.

Q: And the “Fibrosis Score 1-3 (%)” value [2]?
A: The value was 68.75 ± 19.59%.

Q: What about the “Fibrosis Score 4-8 (%)” value [2] of the same compound?
A: Its value is 31.25 ± 19.59%.

Q: What about the “Fibrosis score (Ashcraft)” value [2] of the same compound?
A: Its value is 3.15 ± 0.32.

Q: And the “Volume of left lung” value [2]?
A: Its value is 1.29 ± 0.06 cm^3.

Q: What about the “Weight of left lung” value [2] of the same compound?
A: The value was 1.13 ± 0.05 g.

Q: And the “Evaluation … Fibrosis lesion” value [3]?
A: The value was 7.68 ± 0.31.

Q: What about the “Evaluation … Fibrotic lesion edge” value [3] of the same compound?
A: Its value is 6.00 ± 0.13.

Q: And the “Fibrosis area (left pulmonary fibrosis)” value [3]?
A: The value was 76.37 ± 8.33.

Q: And the “Fibrosis Score 1-3 (%)” value [3]?
A: Its value is 71.25 ± 22.95%.

Q: What about the “Fibrosis Score 4-8 (%)” value [3] of the same compound?
A: Its value is 28.75 ± 22.95%.

Q: And the “Fibrosis score (Ashcraft)” value [3]?
A: The value was 3.29 ± 0.63.

Q: What about the “Volume of left lung” value [3] of the same compound?
A: Its value is 1.21 ± 0.09 cm^3.

Q: And the “Weight of left lung” value [3]?
A: The value was 1.13 ± 0.08 g.

Q: What about the “injury of terminal bronchioles and pulmonary arterioles compared with model group and Compound A-5 mpk group” value (10 mpk, fibrosis foci, p<0.001) of the same compound?
A: The value was “significantly reduced”.

Q: And the “weight of left lung compared with model group” value (10 mpk)?
A: Its value is “significantly lower”.

Q: What about the “weight of left lung compared with model group” value (20 mpk) of the same compound?
A: The value was “significantly lower”.

Q: What about the “degree of pulmonary fibrosis (Ashcraft score) compared with model group” value (BIBF1120 60 mg/kg/d, Compound A 5, 10, 20 mg/kg/d, p<0.01) of the same compound?
A: The value was “significantly alleviated”.

Q: And the “average score of fibrosis in the entire fibrosis lesion (ashcraft)” value (BIBF1120 60 mg/kg/d, compound A 5, 10, 20 mg/kg/d)?
A: Its value is “about 3 points”.
